Where two headings read alike, the source gives them in different places. Starred links: 1 amine or outer side, 2 acyl side, 3 side chain; linkers in the order of their positions; H or OH if unused. Non-standard residues stand in square brackets, D forms with d. Groups on a side chain read outwards from the residue. No end group written: not given here. *: point of attachment. C20 diacid = O=C(O)CCCCCCCCCCCCCCCCCCC(=O)*; C18 diacid = O=C(O)CCCCCCCCCCCCCCCCC(=O)*; γGlu = O=C(O)[C@H](CCC(=O)[*:2])N[*:1]; εLys = N[C@@H](CCCCN[*:1])C(=O)[*:2]; AEEA = NCCOCCOCC(=O)O; Aib = CC(C)(N)C(=O)O
Columns and labels:
Type in all cases: cell-based
Conditions in all cases: CreLuc reporter gene assay
hGIPR = molecular target: T1, hGIPR (Homo sapiens, UniProt P48546); test: hGIPR CreLuc reporter gene assay in 0.5% and 100% plasma
T1 construct: expressed in transfected cells; host or cells: CHO cells carrying a CRE-luciferase reporter gene
T1 sequence (P48546 22-466): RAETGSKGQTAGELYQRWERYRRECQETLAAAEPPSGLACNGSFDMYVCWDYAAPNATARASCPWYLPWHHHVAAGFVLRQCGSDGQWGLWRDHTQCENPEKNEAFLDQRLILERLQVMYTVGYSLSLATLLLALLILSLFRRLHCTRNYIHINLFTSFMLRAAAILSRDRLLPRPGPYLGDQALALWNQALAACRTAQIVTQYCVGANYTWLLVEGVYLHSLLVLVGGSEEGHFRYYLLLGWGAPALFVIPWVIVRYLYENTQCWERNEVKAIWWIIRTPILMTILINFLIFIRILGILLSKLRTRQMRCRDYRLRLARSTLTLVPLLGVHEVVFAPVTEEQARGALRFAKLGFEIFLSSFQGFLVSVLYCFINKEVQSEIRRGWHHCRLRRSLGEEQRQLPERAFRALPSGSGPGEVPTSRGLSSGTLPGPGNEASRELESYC
Method in brief: (§1)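 Agonist EC50s came from 8-concentration curves over four decades, fitted by non-linear variable-slope regression of CRE-driven luciferase luminescence. Cells were exposed 4 h at 37 °C, in buffer with 0.5% human plasma or in 100% plasma; GIPR was expressed in CHO cells, GLP-1R and NPY2R in HEK cells.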

hGLP1R = molecular target: T2, hGLP1R (Homo sapiens, UniProt P43220); test: hGLP1R CreLuc reporter gene assay in 0.5% and 100% plasma
T2 construct: expressed in transfected cells; host or cells: HEK-293 cells carrying a CRE-luciferase reporter gene
Method in brief: as §1

hNPY2R = molecular target: T3, hNPY2R (Homo sapiens, UniProt P49146); test: hNPY2R CreLuc reporter gene assay in 0.5% and 100% plasma
T3 construct: expressed in transfected cells; host or cells: HEK-293 cells carrying a CRE-luciferase reporter gene
T3 sequence (P49146 1-381): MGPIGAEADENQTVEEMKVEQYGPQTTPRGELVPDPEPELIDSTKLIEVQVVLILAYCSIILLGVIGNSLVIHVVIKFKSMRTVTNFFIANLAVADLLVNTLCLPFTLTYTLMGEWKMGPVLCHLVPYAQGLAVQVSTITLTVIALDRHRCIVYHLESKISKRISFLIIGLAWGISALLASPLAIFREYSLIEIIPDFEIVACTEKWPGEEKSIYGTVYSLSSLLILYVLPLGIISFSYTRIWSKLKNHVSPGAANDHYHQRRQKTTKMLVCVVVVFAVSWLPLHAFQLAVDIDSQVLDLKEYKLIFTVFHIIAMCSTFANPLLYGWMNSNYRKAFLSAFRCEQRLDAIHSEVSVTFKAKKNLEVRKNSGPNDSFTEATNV
Text: Example 1: hGLPR/hGIPR/hNPY2R CreLuc Assay in 0.5% and 100% Plasma
CHO and HEK-293 recombinant cell lines express a luciferase reporter gene under control of the cAMP responsive element (CRE). As a second recombinant protein the GLP-1 and NPY2 receptors were expressed in the reporter gene HEK cells, and the GIP receptor was expressed in the reporter gene CHO cells, respectively. Stimulation of these recombinant cells with an agonist leads to an increase of intracellular cAMP levels. In the presence of cAMP, the transcription factor CRE binding protein (CREB) binds to the CRE and to the CREB binding protein (CBP), which leads to transcription of the luciferase reporter gene. Peptides upon serial-dilution in 100% DMSO were transferred into 384-well assay plates with 5 μl pre-dispensed assay buffer (1×HBSS, 20 mM HEPES, pH7.4 supplemented with 0.5% human plasma) using acoustic dispensing on a Labcyte ECHO. Cryo-preserved transgenic reporter gene cells were thawed in assay buffer. 20 μl (10.000 cells/well) were added to the plate with the peptides and incubated for 4 hours at 37° C. in a humidified incubator. Following incubation, assay plates are equilibrated to room temperature, followed by addition of 25 μl of Bright-GIo™ Luciferase reagent, incubation at room temperature for 10 minutes and analysis of luminescence (Envision Reader). Concentration response evaluation of compounds was performed with 8 concentrations of peptides (covering four decades). EC50 values were calculated by non-linear regression using sigmoid concentration-response with variable slope. The same assays were run in the presence of 100% plasma with no additional buffer constituents.

[1] = 0.5% human plasma, read-out: hGIPR 0.5% hP
[2] = 100% human plasma, read-out: hGIPR 100% hP
[3] = 0.5% human plasma, read-out: hGLP1R 0.5% hP
[4] = 0.5% human plasma, read-out: hNPY2R 0.5% hP
[5] = 100% human plasma, read-out: hGLP1R 100% hP
[6] = 100% human plasma, read-out: hNPY2R 100% hP

T2 sequence (P43220 24-463): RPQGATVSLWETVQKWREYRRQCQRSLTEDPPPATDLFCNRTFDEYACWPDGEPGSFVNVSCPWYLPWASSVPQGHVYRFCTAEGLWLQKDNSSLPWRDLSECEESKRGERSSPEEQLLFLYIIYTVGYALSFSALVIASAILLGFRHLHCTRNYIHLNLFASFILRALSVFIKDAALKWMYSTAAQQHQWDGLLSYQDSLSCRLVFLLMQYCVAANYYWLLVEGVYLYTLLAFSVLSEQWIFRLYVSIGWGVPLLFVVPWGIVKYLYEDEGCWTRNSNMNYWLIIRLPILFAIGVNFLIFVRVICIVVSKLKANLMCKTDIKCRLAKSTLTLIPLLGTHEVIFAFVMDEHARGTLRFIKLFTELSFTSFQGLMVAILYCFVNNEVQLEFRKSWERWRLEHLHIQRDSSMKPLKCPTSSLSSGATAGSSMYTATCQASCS

Compound | EC50 (hGIPR; [1]) [nM] | EC50 (hGIPR; [2]) [nM] | EC50 (hGLP1R; [3]) [nM] | EC50 (hNPY2R; [4]) [nM] | EC50 (hGLP1R; [5]) [nM] | EC50 (hNPY2R; [6]) [nM]
H-Y[Aib]EGTFTSDYSI[Aib]LEEQAQ[Aib]AFVEWLIK([εLys-AEEA-γGlu-γGlu-γGlu-γGlu-γGlu-C20 diacid])GGPSSGASLRHYYNWLTRQRY-NH2 [Compound 110, Y-Aib-E-G-T-F-T-S-D-Y-S-I-Aib-L-E-E-Q-A-Q-Aib-A-F-V-E-W-L-I-K(1,3)-GGPSSGASLRHYYNWLTRQRY-NH2.C20DA-gGlu-gGlu-gGlu-gGlu-gGlu-OEG-eLys(1,2)] | 0.15 | 1.14 | 0.15 | 17.5 | – | –
H-Y[Aib]EGTFTSDYSI[Aib]LEKQAQ[Aib]AFIEWLIK([γGlu-γGlu-γGlu-γGlu-C20 diacid])GGPSEGASLRHYYNWLTRQRY-NH2 [Compound 283, Y-Aib-E-G-T-F-T-S-D-Y-S-I-Aib-L-E-K-Q-A-Q-Aib-A-F-I-E-W-L-I-K(1,3)-GGPSEGASLRHYYNWLTRQRY-NH2.C20DA-gGlu-gGlu-gGlu-gGlu(1,2)] | 0.23 | 1.86 | 0.13 | 14.7 | 3.86 | –
H-Y[Aib]EGTFTSDYSI[Aib]LEKQAQ[Aib]AFVEWLIK([εLys-γGlu-γGlu-γGlu-γGlu-γGlu-C20 diacid])GGPEEGASLRHYYNWLTRQRY-NH2 [Compound 230, Y-Aib-E-G-T-F-T-S-D-Y-S-I-Aib-L-E-K-Q-A-Q-Aib-A-F-V-E-W-L-I-K(1,3)-GGPEEGASLRHYYNWLTRQRY-NH2.C20DA-gGlu-gGlu-gGlu-gGlu-gGlu-eLys(1,2)] | 0.28 | 1.43 | 0.29 | 15.4 | – | –
H-Y[Aib]EGTFTSDYSI[Aib]LEKQAQ[Aib]AFVEWLIK([AEEA-AEEA-γGlu-γGlu-γGlu-γGlu-C20 diacid])GGPSSPASLRHYYNWLTRQRY-NH2 [Compound 175, Y-Aib-E-G-T-F-T-S-D-Y-S-I-Aib-L-E-K-Q-A-Q-Aib-A-F-V-E-W-L-I-K(1,3)-GGPSSPASLRHYYNWLTRQRY-NH2.C20DA-gGlu-gGlu-gGlu-gGlu-OEG-OEG(1,2)] | 0.29 | 1.53 | 0.1 | 10.5 | – | 48.7
H-Y[Aib]EGTFTSDYSI[Aib]LEKQAQ[Aib]AFIEWLIK([γGlu-γGlu-γGlu-γGlu-C18 diacid])GGPSEGASLRHYYNWLTRQRY-NH2 [Compound 247, Y-Aib-E-G-T-F-T-S-D-Y-S-I-Aib-L-E-K-Q-A-Q-Aib-A-F-I-E-W-L-I-K(1,3)-GGPSEGASLRHYYNWLTRQRY-NH2.C18DA-gGlu-gGlu-gGlu-gGlu(1,2)] | 0.26 | 1.57 | 0.11 | 11.9 | – | 64.7
H-Y[Aib]EGTFTSDYSI[Aib]LEKQAQ[Aib]AFVEWLIK([γGlu-γGlu-γGlu-γGlu-γGlu-C18 diacid])GGPSSPASLRHYYNWLTRQRY-NH2 [Compound 180, Y-Aib-E-G-T-F-T-S-D-Y-S-I-Aib-L-E-K-Q-A-Q-Aib-A-F-V-E-W-L-I-K(1,3)-GGPSSPASLRHYYNWLTRQRY-NH2.C18DA-gGlu-gGlu-gGlu-gGlu-gGlu(1,2)] | 0.2 | – | 0.1 | – | – | 107
CC[C@H](C)[C@H](NC(=O)[C@H](CC(C)C)NC(=O)[C@H](Cc1c[nH]c2ccccc12)NC(=O)[C@H](CCC(=O)O)NC(=O)[C@@H](NC(=O)[C@H](Cc1ccccc1)NC(=O)[C@H](C)NC(=O)C(C)(C)NC(=O)[C@H](CCC(N)=O)NC(=O)[C@H](C)NC(=O)[C@H](CCC(N)=O)NC(=O)[C@H](CCCCN)NC(=O)[C@H](CCC(=O)O)NC(=O)[C@H](CC(C)C)NC(=O)C(C)(C)NC(=O)[C@@H](NC(=O)[C@H](CO)NC(=O)[C@H](Cc1ccc(O)cc1)NC(=O)[C@H](CC(=O)O)NC(=O)[C@H](CO)NC(=O)[C@@H](NC(=O)[C@H](Cc1ccccc1)NC(=O)[C@@H](NC(=O)CNC(=O)[C@H](CCC(=O)O)NC(=O)C(C)(C)NC(=O)[C@@H](N)Cc1ccc(O)cc1)[C@@H](C)O)[C@@H](C)O)[C@@H](C)CC)C(C)C)C(=O)N[C@@H](CCCCNC(=O)[C@@H](N)CCCCNC(=O)CC[C@H](NC(=O)CC[C@H](NC(=O)CC[C@H](NC(=O)CC[C@H](NC(=O)CC[C@H](NC(=O)CC[C@H](NC(=O)CCCCCCCCCCCCCCCCCCC(=O)O)C(=O)O)C(=O)O)C(=O)O)C(=O)O)C(=O)O)C(=O)O)C(=O)NCC(=O)NCC(=O)N1CCC[C@H]1C(=O)N[C@@H](CO)C(=O)N[C@@H](CO)C(=O)NCC(=O)N[C@@H](CCC(=O)O)C(=O)N[C@@H](CO)C(=O)N[C@@H](CC(C)C)C(=O)N[C@@H](CCCNC(=N)N)C(=O)N[C@@H](Cc1c[nH]cn1)C(=O)N[C@@H](Cc1ccc(O)cc1)C(=O)N[C@@H](Cc1ccc(O)cc1)C(=O)N[C@@H](CC(N)=O)C(=O)N[C@@H](Cc1c[nH]c2ccccc12)C(=O)N[C@@H](CC(C)C)C(=O)N[C@H](C(=O)N[C@@H](CCCNC(=N)N)C(=O)N[C@@H](CCC(N)=O)C(=O)N[C@@H](CCCNC(=N)N)C(=O)N[C@@H](Cc1ccc(O)cc1)C(N)=O)[C@@H](C)O [Compound 127, Y-Aib-E-G-T-F-T-S-D-Y-S-I-Aib-L-E-K-Q-A-Q-Aib-A-F-V-E-W-L-I-K(1,3)-GGPSSGESLRHYYNWLTRQRY-NH2.C20DA-gGlu-gGlu-gGlu-gGlu-gGlu-gGlu-eLys(1,2)] | 0.05 | 0.84 | 0.04 | 13.2 | 1.6 | –
H-Y[Aib]EGTFTSDYSI[Aib]LEKQAQ[Aib]AFVEWLIK([AEEA-AEEA-γGlu-γGlu-γGlu-γGlu-C20 diacid])GGPSEGASLRHYYNWLTRQRY-NH2 [Compound 287, Y-Aib-E-G-T-F-T-S-D-Y-S-I-Aib-L-E-K-Q-A-Q-Aib-A-F-V-E-W-L-I-K(1,3)-GGPSEGASLRHYYNWLTRQRY-NH2.C20DA-gGlu-gGlu-gGlu-gGlu-OEG-OEG(1,2)] | 0.34 | – | 0.27 | 13.3 | – | 45.9
H-Y[Aib]EGTFTSDYSI[Aib]LEKQAQ[Aib]AFVEWLIK([εLys-γGlu-γGlu-γGlu-γGlu-γGlu-γGlu-C20 diacid])GGPSSAASLRHYYNWLTRQRY-NH2 [Compound 98, Y-Aib-E-G-T-F-T-S-D-Y-S-I-Aib-L-E-K-Q-A-Q-Aib-A-F-V-E-W-L-I-K(1,3)-GGPSSAASLRHYYNWLTRQRY-NH2.C20DA-gGlu-gGlu-gGlu-gGlu-gGlu-gGlu-eLys(1,2)] | – | – | 0.31 | 15.1 | – | –
Y[Aib]EGTFTSDYSI[Aib]LEKQAQ[Aib]AFVEWLIK([γGlu-γGlu-γGlu-γGlu-γGlu-C20 diacid])GGPSSGASLRHYYNWLTRQRY-NH2 [Compound 238, Y-Aib-E-G-T-F-T-S-D-Y-S-I-Aib-L-E-K-Q-A-Q-Aib-A-F-V-E-W-L-I-K(1,3)-GGPSSGASLRHYYNWLTRQRY-NH2.C20DA-gGlu-gGlu-gGlu-gGlu-gGlu(1,2)] | – | – | 0.1 | 11.6 | 2.55 | –

Source: US20240247080A1, “GLP1/GIP/NPY2 RECEPTOR TRIPLE AGONISTS” (Boehringer Ingelheim International GmbH, priority 2022, published 2024)
